In PubChem BioAssay AID463229 (Broad Institute, 2010) one finds AC50 data, which are given here for 92 molecules.

The source made the active and inactive calls.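 How the source made its calls: active means compounds raising the signal whose fitted half-maximal concentration is at or below their top tested dose (cut at about 25 µM in these data); inconclusive means flat fit at 30 to 70% activity, or a poor fit; inactive means the rest.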

The assay has as its system INS-1E rat beta cells, no cytokines, CellTiter-Glo ATP, 48 h. Briefly: ATP level change in INS-1E without cytokines, dose response, counter-screen for beta-cell apoptosis protection project, INS-1E rat cells, ATP luminescence, cherry pick (AID 463229).
For `CC(=O)c1ccc(OCc2cc(C(=O)N3CCCCC3c3cccnc3)no2)cc1` (configuration not stated), the AC50 was 22.4 µM.
Turning to `COc1ccccc1CNCC(O)Cn1c2ccccc2c2ccccc21` (configuration not stated), the concentration at half-maximal activity (AC50) is 12.9 µM.
`c1ccc(N2CCN(c3nc(-c4ccccn4)nc4ccccc34)CC2)cc1`: the concentration at half-maximal activity (AC50) is 14.9 µM.
On to `c1ccc2c(c1)ncn2CCCOc1ccc2c(c1)CCC2`, for which the concentration at half-maximal activity (AC50) was 7.74 µM.
Regarding `CC(=O)c1ccc(NC(=S)NC(C)c2ccc(Cl)cc2Cl)cc1` (configuration not stated), the half-maximal activity concentration (AC50) is 21.1 µM.
`COc1ccc(C(NC(C)=O)c2ccc3cccnc3c2O)c(OC)c1` (configuration not stated): the AC50 is 4.24 µM.
Take `Cc1cc(C(C)(C)C)cc(C)c1C[n+]1ccc2ccccc2c1`: the AC50 is 1.74 µM.
In the case of `CCn1c(/C=C/c2ccc([N+](=O)[O-])o2)nc2ccccc2c1=O`, the concentration at half-maximal activity (AC50) was 4.08 µM.
With `N=c1ccn(CC(=O)c2ccc(-c3ccccc3)cc2)cc1`, the concentration at half-maximal activity (AC50) is 1.94 µM.
The result for `C1=C(CCNc2ncnc3c2[nH]c2ccccc23)CCCC1` reads 0.489 µM; that for `COc1ccc([N+](=O)[O-])c(S(=O)(=O)c2ccccc2)n1`, 7.36 µM.
Regarding `C#CCOCCOCCOCCNc1nc(N2CCN(C(=O)CCCCCCCCCCNC(=O)[C@H](CCCCN)n3cc(C)nn3)CC2)nc(N2CCN(C(=O)CCCCCCCCCCNC(=O)[C@H](CCCN=C(N)N)n3cc(C[C@@H](C)CC)nn3)CC2)n1`, the concentration at half-maximal activity (AC50) was 7.85 µM.
As for `CC(=O)N1CCCc2cc(S(=O)(=O)N3CCCC(C(=O)N4CCN(c5cccc(Cl)c5)CC4)C3)ccc21` (configuration not stated), the concentration at half-maximal activity (AC50) is 7.05 µM.
With `Cc1nc2c(-c3ccc(Cl)cc3)c(C)[nH]n2c(=O)c1Cc1ccccc1`, the AC50 is 5.46 µM.
With `O=C(Nc1ccc(Cl)cc1)Nc1ccc(Cl)c(Cl)c1`, the concentration at half-maximal activity (AC50) was 6.98 µM.
For `Cc1[nH]n(C2=NCCS2)c(=O)c1N=Nc1cccc(C(F)(F)F)c1`, the half-maximal activity concentration (AC50) was 7.05 µM.
Take `Cc1cccc(CSC(Nc2ccc(F)cc2)=C(C#N)C#N)c1`: the AC50 is 5.85 µM.
With `CCCCCCCCCCOC(=O)Cn1c(COc2ccc(C)cc2)[n+](C)c2ccccc21`, the half-maximal activity concentration (AC50) was 4 µM.
Consider `Clc1cc2cccnc2c2ncccc12`, for which the AC50 was 15 µM.
In the case of `O=[N+]([O-])c1cccc(-c2cn3nc(-c4ccccc4)c(-c4ccccc4)nc3n2)c1`, the half-maximal activity concentration (AC50) was 10 µM.
As for `COCCNC(=O)CSC1=N/C(=C/c2ccc(Cl)c(Cl)c2)C(=O)N1c1ccccc1F`, the AC50 is 8.25 µM.
As for `COc1cc(Cl)c(NC2=CC(=O)C(=O)c3ccccc32)c(OC)c1`, the AC50 was 8.01 µM.
In the case of `Cc1ccc(NC2=C/C(=N\S(=O)(=O)c3cccs3)c3ccccc3C2=O)c(C)c1`, the AC50 was 1.88 µM.
As to `CC(C)(C)n1ncc2c(=O)n(Cc3cccc(Cn4cnc5c(cnn5C(C)(C)C)c4=O)c3F)cnc21`, the AC50 was 4.32 µM.
Take `O=C(CN1CCOCC1)N/N=C/c1c(O)ccc2ccccc12`: the AC50 was 16.1 µM.
Consider `COc1cnc(-c2ccccn2)nc1Sc1ccccc1Cl`, for which the AC50 was 23.1 µM.
`O=C(CNc1cccc2ccccc12)N/N=C/c1ccc([N+](=O)[O-])o1`: the AC50 was 11.5 µM.
As for `CCOC(=O)c1[nH]cnc1N=Nc1c(O)ccc2ccccc12`, the half-maximal activity concentration (AC50) was 2.28 µM.
For the molecule `Cc1ccc(-n2cccc2C(=S)N=P(N(C)C)(N(C)C)N(C)C)cc1`, the AC50 is 7.11 µM.
For `Cc1ccc(NC(=O)Cn2c(=O)oc3cc(S(=O)(=O)N4CCC(C)CC4)ccc32)cc1C`, the AC50 was 16 µM.
Take `CC(=O)Nc1ccc(S(=O)(=O)Nc2ccc(N3CCCCC3)cc2)cc1`: the AC50 is 4.33 µM.
For the molecule `COc1cccc(/C=N/Nc2cc(C)nc(-c3ccccc3O)n2)c1O`, the concentration at half-maximal activity (AC50) was 15.1 µM.
Regarding `CN(C)CCCN(C(=O)c1ccc(S(=O)(=O)N(C)Cc2ccccc2)cc1)c1nc2cc3c(cc2s1)OCO3`, the concentration at half-maximal activity (AC50) is 15.9 µM.
For `C#CCOCCOCCOCCNc1nc(N2CCN(C(=O)CCCCCCCCCCNC(=O)[C@H]([C@@H](C)CC)n3cc(CCCCN=C(N)N)nn3)CC2)nc(N2CCN(C(=O)CCCCCCCCCCNC(=O)[C@H](CO)n3cc(CCCCCN)nn3)CC2)n1`, the AC50 is 7.67 µM.
As for `CCCC[n+]1ccn(C2=C([O-])c3ccccc3C(=O)/C2=N\S(=O)(=O)c2ccc(Cl)cc2)c1`, the concentration at half-maximal activity (AC50) is 15.8 µM.
Regarding `Cc1[nH]n(-c2ccccc2)c(=O)c1/C=N\NC(=O)C1COc2ccccc2O1` (configuration not stated), the AC50 was 14 µM.
`Cn1cccc1C1C=C(c2ccc(C(C)(C)C)cc2)Nc2ncnn21` (configuration not stated): the AC50 was 3.2 µM.
As for `CC(C)(C)c1cnnn1-c1ccc(/C=N/Nc2ccc([N+](=O)[O-])cc2)cc1`, the half-maximal activity concentration (AC50) was 7.77 µM.
Turning to `CC(=O)Nc1ccc(Nc2c3ccccc3nc3ccccc23)cc1`, the concentration at half-maximal activity (AC50) is 7.08 µM.
On to `O=[N+]([O-])c1cnc(Sc2ccncn2)s1`, for which the half-maximal activity concentration (AC50) is 5.75 µM.
For the molecule `COC(=O)C1=C(C)N(Cc2ccccc2)C(=NCc2cccc(Cl)c2)N[C@H]1c1cccc(F)c1`, the AC50 was 6.75 µM.
Consider `CCCCCCCCCn1c2c(c(=N)c3c1CCC3)CCC2`, for which the concentration at half-maximal activity (AC50) was under 0.195 µM.
As for `COc1ccccc1/C=C1\SC(=O)N(CCC(=O)NCCCn2ccnc2)C1=O`, the AC50 is 8.2 µM.
As for `Oc1c(Cl)cc(Cl)cc1/C=N/Nc1ncc(Br)cn1`, the AC50 is 3.94 µM.
The result for `O=[N+]([O-])c1ccc(O)c(/C=N/NC(=S)Nc2ccc(Cl)cc2Cl)c1` reads 17.9 µM; that for `COc1cccc(F)c1C(C[N+](=O)[O-])c1c(N)n(C)c(=O)n(C)c1=O` (configuration not stated), 8.3 µM.
As for `CCOc1cc(S(=O)(=O)NCc2ccncc2)ccc1Cl`, the concentration at half-maximal activity (AC50) is 1.19 µM.
Consider `CCCCCCCCCCCCCCCC[N+](C)(C)CC`, for which the half-maximal activity concentration (AC50) is 6.57 µM.
As for `CC(C)(C)c1ccc(CSc2cnn(C(C)(C)C)c(=O)c2Cl)cc1`, the AC50 is under 0.195 µM.
With `CCCCSc1nc2sc3c(c2c(=O)n1-c1ccc(C)cc1)CCN(C)C3`, the AC50 was 22.4 µM.
Then `Cc1csc2ncnc(N3CCN(S(=O)(=O)c4cccc(C(F)(F)F)c4)CC3)c12`, with 5.81 µM; and `COc1cccc(/C=N/Nc2ncnc(Cl)c2N)c1O`, with 4.32 µM.
`COc1nc(Nc2nc3ccccc3c(=O)[nH]2)nc2ccc(C)cc12`: the AC50 is 2.31 µM.
In the case of `CCOc1ccc(S(=O)(=O)N(C(=O)c2ccco2)c2cc3sc(=O)oc3c3ccccc23)cc1`, the half-maximal activity concentration (AC50) is 12.7 µM.
As for `Cc1cc(-c2ccccc2)cc(C)[n+]1Cc1ccccc1`, the AC50 was 0.667 µM.
Turning to `CC(C)(C)c1ccc(OCc2ccc(C(=O)N/N=C/c3ccc(O)c(O)c3)cc2)cc1`, the concentration at half-maximal activity (AC50) was 8.35 µM.
Consider `O=[N+]([O-])c1c(Nc2ccccn2)cc(Cl)c2nonc12`, for which the AC50 was 7.39 µM.
For `Cc1ccc2c(c1)N(C)/C(=C/c1cccc[n+]1CCO)S2`, the AC50 is 3.18 µM.
Take `Cc1ccc(C2=CC(c3ccc(N(C)C)cc3)n3nnnc3N2)cc1` (configuration not stated): the AC50 was 6.72 µM.
Turning to `Cc1ccc(C)c(S(=O)(=O)N2CCN(Cc3ccc(O)c4ncccc34)CC2)c1`, the AC50 was 5.74 µM.
As for `CCOc1ccc2nc(NC(=O)c3cccc(-c4cc5ccccc5oc4=O)c3)sc2c1`, the AC50 is 3.31 µM.
Take `Cn1c(NN=O)nc2ccccc21`: the half-maximal activity concentration (AC50) is 4.08 µM.
In the case of `Cc1ccc(Nc2c(-c3ccccn3)nc3cc(C)ccn23)cc1`, the half-maximal activity concentration (AC50) was 7.49 µM.
In the case of `Cc1ccccc1NC1=C/C(=N\S(=O)(=O)c2ccc(C(=O)O)cc2)c2ccccc2C1=O`, the AC50 is 12 µM.
On to `CN(C)c1cc[n+](CC(=O)Nc2ccc(Oc3ccccc3)cc2)cc1`, for which the half-maximal activity concentration (AC50) is 2.36 µM.
For the molecule `CCOC(=O)CS(=O)(=O)c1nc(-c2ccccc2)cc(C(F)(F)F)n1`, the AC50 was 8.1 µM.
Then `Cc1[nH]n(-c2ccccc2)c(=O)c1/C=N/NC(=O)COc1ccccc1[N+](=O)[O-]`, with 8.45 µM; and `CCCN(CCC)C(=O)c1cc([N+](=O)[O-])cc2c1-c1ccc([N+](=O)[O-])cc1C2=C(C#N)C#N`, with 14.2 µM; and `CCC1CCCCN1S(=O)(=O)c1ccc(NC(=O)c2nc(S(C)(=O)=O)ncc2Cl)cc1` (configuration not stated), with 8.01 µM.
Consider `COc1cc2nc(N3CCN(c4cc(C)ccc4C)CC3)nc(N)c2cc1OC`, for which the AC50 is 6.91 µM.
Then `Oc1ccc(CN2CCc3ccccc3C2)c2cccnc12`, with 3.7 µM; and `O=C(Nc1cc(S(=O)(=O)N2CCCCC2)ccc1Cl)c1ccccc1NS(=O)(=O)c1ccc(F)cc1`, with 3.66 µM.
`Cc1[nH]c2ccccc2c1CN1CCN(c2ccccn2)CC1`: the concentration at half-maximal activity (AC50) was 5.1 µM.
For the molecule `C/C(=N\NC(=O)c1cc(-c2cccs2)nc2ccccc12)c1ccccn1`, the concentration at half-maximal activity (AC50) was 1.92 µM.
For `Nc1ccccc1C#CC(=O)c1ccccc1`, the AC50 was 11.9 µM.
For the molecule `FC(F)(F)c1cccc(-c2nc3nc(Cl)c(Cl)nc3[nH]2)c1`, the AC50 was 3.13 µM.
Then `CC1=CC(=O)C(C(C)C)=C/C1=N/OS(=O)(=O)c1ccccc1`, with 1.42 µM; and `CC1=C(CC(=O)c2ccc(Cl)cc2)C(=O)c2ccccc2C1=O`, with 26.6 µM.
As to `O=C(Nc1ccc(C(F)(F)F)cc1)C1CCN(S(=O)(=O)c2ccc(N3CCCC3=O)cc2)CC1`, the AC50 is 4.37 µM.
Take `COc1ccc(OC)c2sc(N(CCCN(C)C)C(=O)c3ccc(S(=O)(=O)N4CCc5ccccc5C4)cc3)nc12`: the AC50 is 2.23 µM.
For `CSc1nc(N)nc2c1ncn2CC(=O)N1CCN(Cc2c(C)cc(C)cc2C)CC1`, the concentration at half-maximal activity (AC50) was 2.65 µM.
Then `Cc1ccc(C)c(N=Nc2ccc(O)c3ncccc23)c1`, with 3.98 µM; and `CCc1c(C)nc2ncnn2c1NCCc1ccc(OC)cc1`, with 6.85 µM.
Regarding `Cn1nc([N+](=O)[O-])nc1Sc1cccc2cccnc12`, the AC50 is 7.81 µM.
`O=C1/C(=C\c2cccnc2)CN(Cc2ccccc2)C/C1=C\c1cccnc1`: the AC50 was 7.58 µM.
Consider `O=C1/C(=C/c2ccc(N3CCOCC3)o2)SC(=Nc2ccccc2)N1CCc1c[nH]c2ccccc12`, for which the AC50 is > 26 µM (inactive).
For the molecule `COc1cc(C(=O)Oc2ccccc2/C=N/NC(=O)c2ccc(C)c(Cl)c2)cc(OC)c1OC`, the AC50 is 12.6 µM.
For `CC(C)(C)C(=O)NC(=S)NNC(=O)c1ccc(-c2ccccc2)cc1`, the concentration at half-maximal activity (AC50) was 5.71 µM.
For `Cc1cc(O)c2c(c1)C(=O)C13C(=C2O)C(=O)[C@H]2[C@@H](O)[C@@H]1[C@H]1[C@H](O)[C@@H]3C(=O)C3=C(O)c4c(O)cc(C)cc4C(=O)C312` (some centres not stated), the AC50 was 4.68 µM.
Then `CCc1ccc(S(=O)(=O)/N=C2\C=C(Nc3ccc(O)cc3)C(=O)c3ccccc32)cc1`, with 2.21 µM; and `CCc1ccc(-c2cc(C(F)(F)F)n3nc(C(=O)Nc4cnn(Cc5ccc(C)cc5)c4)cc3n2)s1`, with 7.83 µM.
As to `CCOC(=O)C1CCCN(S(=O)(=O)c2ccc(S(=O)(=O)N(CC)CC)cc2)C1` (configuration not stated), the half-maximal activity concentration (AC50) was 3.8 µM.
